Assay results: patent US11040981B2, “Pyrrolotriazine compounds and methods of inhibiting TAM kinases” (Syros Pharmaceuticals, Inc., priority 2017, dated 2021)

Tests used:
AXL = target: T1, AXL (Homo sapiens, UniProt P30530); assay: TR-FRET kinase activity assay, AXL; type: biochemical; conditions: ATP at Km, 60 minutes
T1 sequence (P30530 26-894): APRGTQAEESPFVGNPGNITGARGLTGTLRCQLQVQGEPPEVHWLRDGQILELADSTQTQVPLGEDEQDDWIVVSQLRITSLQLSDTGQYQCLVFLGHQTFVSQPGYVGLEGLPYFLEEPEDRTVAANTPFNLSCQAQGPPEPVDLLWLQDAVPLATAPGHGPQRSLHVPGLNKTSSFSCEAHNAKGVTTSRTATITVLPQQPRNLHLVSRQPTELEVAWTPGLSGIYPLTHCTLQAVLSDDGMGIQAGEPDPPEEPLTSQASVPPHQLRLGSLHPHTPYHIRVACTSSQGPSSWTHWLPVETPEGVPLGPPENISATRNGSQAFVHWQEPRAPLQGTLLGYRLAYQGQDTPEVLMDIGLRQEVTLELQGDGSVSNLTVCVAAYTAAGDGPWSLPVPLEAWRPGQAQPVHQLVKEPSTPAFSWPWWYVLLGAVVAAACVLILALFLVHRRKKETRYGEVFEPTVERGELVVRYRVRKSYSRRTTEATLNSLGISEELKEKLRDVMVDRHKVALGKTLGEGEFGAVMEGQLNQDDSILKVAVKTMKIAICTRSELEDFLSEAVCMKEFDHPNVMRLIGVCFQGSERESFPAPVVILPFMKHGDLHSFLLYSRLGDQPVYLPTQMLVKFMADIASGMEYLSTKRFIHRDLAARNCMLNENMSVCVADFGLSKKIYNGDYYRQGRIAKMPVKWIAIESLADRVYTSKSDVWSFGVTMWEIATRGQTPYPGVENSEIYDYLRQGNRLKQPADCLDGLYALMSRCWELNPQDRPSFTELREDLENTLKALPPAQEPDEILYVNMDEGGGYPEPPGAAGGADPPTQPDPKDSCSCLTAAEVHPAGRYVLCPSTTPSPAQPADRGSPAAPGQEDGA
In short: (§1)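 Enzyme + labelled peptide + cpd premixed; ATP at per-enzyme Km starts rxn. 60 min RT, HEPES pH 7.5/MgCl2/EGTA/Brij 35/DTT buffer. Stop 12.5 mM EDTA, Eu phospho-Ab 30 min dark, TR-FRET read → IC50.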

MERTK = target: T2, MERTK (Homo sapiens, UniProt Q12866); assay: TR-FRET kinase activity assay, MERTK; type: biochemical; conditions: for IC50: TR-FRET activity assay, ATP at Km, 60 minutes, read-out: Mer IC50; for FLT3/Mer ratio (FLT3 IC50/Mer IC50): ratio of Mer to FLT3: FLT3 IC50/Mer IC50
T2 sequence (Q12866 21-999): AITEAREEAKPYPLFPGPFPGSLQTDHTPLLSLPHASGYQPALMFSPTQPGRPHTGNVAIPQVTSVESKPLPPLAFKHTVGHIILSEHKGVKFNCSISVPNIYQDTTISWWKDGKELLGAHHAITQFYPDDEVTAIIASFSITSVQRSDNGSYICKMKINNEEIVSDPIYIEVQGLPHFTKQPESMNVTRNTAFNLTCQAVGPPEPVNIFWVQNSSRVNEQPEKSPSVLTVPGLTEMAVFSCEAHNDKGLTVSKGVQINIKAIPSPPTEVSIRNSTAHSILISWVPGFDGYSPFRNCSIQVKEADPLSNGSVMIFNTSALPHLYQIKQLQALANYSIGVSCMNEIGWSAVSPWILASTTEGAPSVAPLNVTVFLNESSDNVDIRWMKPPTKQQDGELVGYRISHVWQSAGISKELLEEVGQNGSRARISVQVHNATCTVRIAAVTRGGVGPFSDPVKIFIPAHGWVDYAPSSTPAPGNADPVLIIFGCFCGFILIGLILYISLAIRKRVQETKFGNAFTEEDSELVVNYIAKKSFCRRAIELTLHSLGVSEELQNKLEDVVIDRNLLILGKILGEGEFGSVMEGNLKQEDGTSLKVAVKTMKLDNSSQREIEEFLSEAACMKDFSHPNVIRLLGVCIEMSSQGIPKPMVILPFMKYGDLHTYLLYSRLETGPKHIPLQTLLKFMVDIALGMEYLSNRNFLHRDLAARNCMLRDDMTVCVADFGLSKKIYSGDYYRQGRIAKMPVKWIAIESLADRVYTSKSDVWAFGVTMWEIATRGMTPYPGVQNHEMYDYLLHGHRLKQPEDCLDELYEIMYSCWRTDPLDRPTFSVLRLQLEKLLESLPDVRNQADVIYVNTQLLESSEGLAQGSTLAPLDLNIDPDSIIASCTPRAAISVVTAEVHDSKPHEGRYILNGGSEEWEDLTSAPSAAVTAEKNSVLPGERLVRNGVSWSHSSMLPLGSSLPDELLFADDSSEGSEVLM
In short: as §1

Row | Compound | IC50 (AXL) [nM] | IC50 (MERTK) [nM] | FLT3/Mer ratio (FLT3 IC50/Mer IC50) (MERTK)
1 | C[C@@H](CC(F)(F)F)Nc1ncc2c(-c3cnn([C@H]4CCOC4)c3)cc([C@H]3CC[C@H](O)CC3)n2n1 [Compound 290] | ≤ 100 | ≤ 100 | ++ (“++” represents a ratio of between 10 and 100)
2 | COC[C@H](C)Nc1ncc2c(-c3cnn(C4CN(CCC(F)(F)F)C4)c3)cc([C@H]3CC[C@H](O)CC3)n2n1 [Compound 291] | ≤ 100 | ≤ 100 | +++ (“+++” represents a ratio of >100)
3 | COC[C@H](C)Nc1ncc2c(-c3cnn(C4CN(C(=O)C5(C(F)(F)F)CC5)C4)c3)cc([C@H]3CC[C@H](O)CC3)n2n1 [Compound 294] | ≤ 100 | ≤ 100 | +++ (“+++” represents a ratio of >100)
4 | CNC(=O)C(C)(C)n1cc(-c2cc([C@H]3CC[C@H](O)CC3)n3nc(N[C@@H](C)COC)ncc23)cn1 [Compound 295] | ≤ 100 | ≤ 100 | +++ (“+++” represents a ratio of >100)
5 | Cc1nnc(Cn2cc(-c3cc([C@H]4CC[C@H](O)CC4)n4nc(N[C@@H](C)CC(F)(F)F)ncc34)cn2)o1 [Compound 296] | ≤ 100 | ≤ 100 | ++ (“++” represents a ratio of between 10 and 100)
6 | C[C@@H](CC(F)(F)F)Nc1ncc2c(-c3ccc(S(C)(=O)=O)nc3)cc([C@H]3CC[C@H](O)CC3)n2n1 [Compound 297] | ≤ 100 | ≤ 100 | ++ (“++” represents a ratio of between 10 and 100)
7 | C[C@@H](CC(F)(F)F)Nc1ncc2c(-c3cncc(C(=O)O)c3)cc([C@H]3CC[C@H](O)CC3)n2n1 [Compound 298] | ≤ 100 | ≤ 100 | +++ (“+++” represents a ratio of >100)
8 | CC(CC(F)(F)F)Nc1ncc2c(-c3cnc(C(=O)O)nc3)cc(C3CCC(O)CC3)n2n1 (stereo not drawn) [Compound 299] | ≤ 100 | ≤ 100 | +++ (“+++” represents a ratio of >100)
9 | COC[C@H](C)Nc1ncc2c(-c3ccc(CN4CCOCC4)cc3)cc([C@H]3CC[C@H](NC(C)=O)CC3)n2n1 [Compound 300, N-((trans)-4-(2-(((S)-1-methoxypropan-2-yl)amino)-5-(4-(morpholinomethyl)phenyl)pyrrolo[2,1-f][1,2,4]triazin-7-yl)cyclohexyl)acetamide] | ≤ 100 | ≤ 100 | +++ (“+++” represents a ratio of >100)
10 | CNC(=O)c1cncc(-c2cc([C@H]3CC[C@H](O)CC3)n3nc(N[C@@H](C)CC(F)(F)F)ncc23)c1 [Compound 304] | ≤ 100 | ≤ 100 | +++ (“+++” represents a ratio of >100)
11 | COC[C@H](C)Nc1ncc2c(-c3cnn(Cc4cnccn4)c3)cc([C@H]3CC[C@H](O)CC3)n2n1 [Compound 305] | ≤ 100 | ≤ 100 | +++ (“+++” represents a ratio of >100)
12 | COC[C@H](C)Nc1ncc2c(-c3cnn(Cc4cnc(C)cn4)c3)cc([C@H]3CC[C@H](O)CC3)n2n1 [Compound 306] | ≤ 100 | ≤ 100 | +++ (“+++” represents a ratio of >100)
13 | CNC(=NC#N)N[C@H]1CC[C@H](c2cc(-c3ccc(CN4CCOCC4)cc3)c3cnc(N[C@@H](C)COC)nn32)CC1 [Compound 307] | ≤ 100 | ≤ 100 | +++ (“+++” represents a ratio of >100)
14 | C[C@@H](CC(F)(F)F)Nc1ncc2c(-c3cncc(C(=O)N(C)C)c3)cc([C@H]3CC[C@H](O)CC3)n2n1 [Compound 310] | ≤ 100 | ≤ 100 | +++ (“+++” represents a ratio of >100)
15 | C[C@@H](CC(F)(F)F)Nc1ncc2c(-c3cncc(C(=O)N4CCOCC4)c3)cc([C@H]3CC[C@H](O)CC3)n2n1 [Compound 311] | ≤ 100 | ≤ 100 | +++ (“+++” represents a ratio of >100)
16 | Cc1nnc(Cn2cc(-c3cc([C@H]4CC[C@H](O)CC4)n4nc(N[C@@H](C)COC(F)F)ncc34)cn2)o1 [Compound 312] | ≤ 100 | ≤ 100 | +++ (“+++” represents a ratio of >100)
17 | COC[C@H](C)Nc1ncc2c(-c3cnn([C@@H]4CCNC4=O)c3)cc([C@H]3CC[C@H](O)CC3)n2n1 [Compound 315] | ≤ 100 | ≤ 100 | +++ (“+++” represents a ratio of >100)

Other lines, results leading:

Row | IC50 (AXL) [nM] | IC50 (MERTK) [nM] | FLT3/Mer ratio (FLT3 IC50/Mer IC50) (MERTK) | Compound
18 | ≤ 100 | ≤ 100 | +++ (“+++” represents a ratio of >100) | COC[C@H](C)Nc1ncc2c(-c3cnn(Cc4nc(C)no4)c3)cc([C@H]3CC[C@H](O)CC3)n2n1 [Compound 292]
19 | ≤ 100 | ≤ 100 | +++ (“+++” represents a ratio of >100) | COC[C@H](C)Nc1ncc2c(-c3cnn(C4CN(C(=O)C5COC5)C4)c3)cc([C@H]3CC[C@H](O)CC3)n2n1 [Compound 293]
20 | ≤ 100 | ≤ 100 | +++ (“+++” represents a ratio of >100) | COC[C@H](C)Nc1ncc2c(-c3ccc(CN4CCOCC4)cc3)cc([C@H]3CC[C@H](NS(C)(=O)=O)CC3)n2n1 [Compound 301]
21 | ≤ 100 | ≤ 100 | +++ (“+++” represents a ratio of >100) | COC[C@H](C)Nc1ncc2c(-c3cnn(C4CN(CC(F)(F)F)C4)c3)cc([C@H]3CC[C@H](O)CC3)n2n1 [Compound 302]
22 | ≤ 100 | ≤ 100 | +++ (“+++” represents a ratio of >100) | COC[C@H](C)Nc1ncc2c(-c3cnn(CC4CNC(=O)C4)c3)cc([C@H]3CC[C@H](O)CC3)n2n1 (stereo partly drawn) [Compound 303]
23 | 100 to 1000 | ≤ 100 | +++ (“+++” represents a ratio of >100) | COC[C@H](C)Nc1ncc2c(-c3cc(C)nc(C)c3)cc([C@H]3CC[C@H](O)CC3)n2n1 [Compound 308]
24 | ≤ 100 | ≤ 100 | +++ (“+++” represents a ratio of >100) | Cc1cc(-c2cc([C@H]3CC[C@H](O)CC3)n3nc(N[C@@H](C)C(F)F)ncc23)ccn1 [Compound 309]
25 | ≤ 100 | ≤ 100 | +++ (“+++” represents a ratio of >100) | Cc1cc(-c2cc([C@H]3CC[C@H](O)CC3)n3nc(N[C@@H](C)COC(F)F)ncc23)ccn1 [Compound 313]
26 | ≤ 100 | ≤ 100 | +++ (“+++” represents a ratio of >100) | COC[C@H](C)Nc1ncc2c(-c3cnn(Cc4ccc(S(C)(=O)=O)cc4)c3)cc([C@H]3CC[C@H](O)CC3)n2n1 [Compound 314]
